Values of other authors as cited in patent publication US20140228364A1, “Ophthalmic Compositions Comprising Prostaglandin F2 Alpha Derivatives and Hyaluronic Acid” (priority 2011, published 2014).

Solubility in water, almost insoluble in water:
CC(C)OC(=O)CCC/C=C\C[C@@H]1[C@@H](/C=C/[C@@H](O)COc2cccc(C(F)(F)F)c2)[C@H](O)C[C@@H]1O [travoprost, 20-ethyl prostaglandin F2α-(+)-fluprostenol isopropyl ester]
CCCCC[C@H](O)/C=C/[C@H]1[C@H](O)CC(=O)[C@H]1C/C=C\CCCC(=O)O [8-isoprostaglandin E2]
CC(C)OC(=O)CCC/C=C\C[C@@H]1[C@@H](CC[C@@H](O)CCc2ccccc2)[C@H](O)C[C@@H]1O [Latanoprost, isopropyl-(Z)-7-[(1R,2R,3R,5S)-3,5-dihydroxy-2-[(3R)-3-hydroxy-5-phenylpentyl]cyclopentyl]-5-heptenoate]
CC(C)OC(=O)CCC/C=C\C[C@@H]1[C@@H](/C=C/C(F)(F)COc2ccccc2)[C@H](O)C[C@@H]1O [tafluprost]
CCCCCCCC(=O)CC[C@@H]1[C@@H](C/C=C\CCCC(=O)OC(C)C)[C@@H](O)C[C@H]1O [unoprostone isopropyl, 13,14-dihydro-20-ethyl-15-ketoprostaglandin F2α-isopropylester]
CCNC(=O)CCC/C=C\C[C@@H]1[C@@H](/C=C/[C@@H](O)CCc2ccccc2)[C@H](O)C[C@@H]1O [bimatoprost]
